According to ChEMBL document CHEMBL1221197, “Selective inhibitors of death in mutant huntingtin cells” (Nat Chem Biol, 2007):
Active and inactive are the calls of the source. The calls are words filed in the database; no cut-off is given here.

Assays:
[1] = Cytotoxicity against rat ST14A cells transfected with human htt gene; assay type: cell-based; settings: read-out: TC50 (the source's name)
[2] = tested on: Saccharomyces cerevisiae; assay: Inhibition of huntingtin in Saccharomyces cerevisiae coexpressing exon 1 fragments with polyQ region Huntington disease (HD) model assessed as increase in cell viability
[3] = Inhibition of human huntingtin N548 mutant expressed in rat ST14A cells assessed as decrease in cell death; assay type: cell-based
[4] = tested on: neuronal; assay: Inhibition of huntingtin mutant in Caenorhabditis elegans ASH neuronal cell Huntington disease model assessed as cell viability; assay type: cell-based
[5] = Inhibition of human huntingtin Q103 mutant expressed in rat PC12 cells assessed as decrease in cell death; assay type: cell-based, PC-12
[6] = tested on: Brain; assay: Inhibition of medium spiny neuron degeneration in rat brain slice Huntington disease (HD) model after 4 days; assay type: functional, tissue-based
[7] = tested on: ST14A; assay: Inhibition of cell death in rat ST14A cells assessed as cell viability; assay type: functional, cell-based
[8] = tested on: ST14A; assay: Inhibition of apoptosis in rat ST14A cells transfected with human htt gene assessed as inhibition of caspase 7 cleavage by Western blot method; assay type: functional, cell-based
[9] = tested on: ST14A; assay: Inhibition of apoptosis in rat ST14A cells transfected with human htt gene assessed as inhibition of caspase 3 cleavage by Western blot method; assay type: functional, cell-based
[10] = tested on: PC-12; assay: Inhibition of human huntingtin Q103 mutant expressed in rat PC12 cells assessed as decrease in cell death relative to control; assay type: cell-based; parameters: concentration or dose not given beside the values
[11] = tested on: ST14A; assay: Inhibition of rat ST14A cell death assessed as inhibition of cell death at 50 uM after 6 hrs by fluorimetry; assay type: functional, cell-based
[12] = tested on: ST14A; assay: Inhibition of rat ST14A cell death expressing human huntingtin N548 mutant assessed as inhibition of cell death at 50 uM after 6 hrs by fluorimetry; assay type: functional, cell-based

| Compound | CC50 [1] [µM] | inhibition [2] | EC50 [3] [µM] | inhibition [4] | EC50 ([5]; pc-12) | inhibition [6] | inhibition [7] | inhibition [8] | inhibition [9] | INH [4] [mM] | inhibition [10] [%] | EC50 ([5]; PC-12, read-out: EC50) [µM] | inhibition [11] | inhibition [12] |
| --- | --- | --- | --- | --- | --- | --- | --- | --- | --- | --- | --- | --- | --- | --- |
| CC(C)C1=CCC2C(=C1)CCC1[C@@]2(C)CCC[C@]1(C)C(=O)O (stereo partly drawn) | 53 | inactive | 7 | inactive | Not Active |  |  |  |  |  |  |  |  |  |
| COc1ccccc1C(CCN(C(C)=O)C(C)c1ccccc1)C1CCC(C)(C)OC1 (stereo not drawn) | 47 | inactive | 5 | inactive | Not Active |  |  |  |  |  |  |  |  |  |
| Cc1nc2c(O)c(Br)ccn2c(=O)c1Br | 24 | inactive | 2 | inactive | Not Active |  |  |  |  |  |  |  |  |  |
| COC1=CC2C(=O)C(=O)N3C2C(=C1)[C@H](C)CC3(C)C (stereo partly drawn) | 77 | inactive | 16 | inactive | Not Active |  |  |  |  |  |  |  |  |  |
| COc1ccc(C(CCN(CC2CCOC(C)(C)C2)C(C)=O)c2ccccc2)cc1 (stereo not drawn) | 49 | inactive | 10 | inactive | Not Active |  |  |  |  |  |  |  |  |  |
| Cc1ccc(-c2nc(NS(=O)(=O)c3ccc(Cl)cc3)sc2C)cc1 | 42 | inactive | 11 | inactive | Not Active |  |  |  |  |  |  |  |  |  |
| CC1=NN(C(N)=S)C(=O)/C1=N/Nc1ccccc1C(F)(F)F | 49 | inactive | 7 | inactive | Not Active |  |  |  |  |  |  |  |  |  |
| CCCc1ccc(CC2=C(O)C(=O)c3ccccc3C2=O)cc1 | 65 | inactive | 7 | inactive | Not Active |  |  |  |  |  |  |  |  |  |
| CCOC(=O)c1cccc(NS(=O)(=O)c2ccc(OC)cc2)c1 | 119 | inactive | 15 | inactive | Not Active |  |  |  |  |  |  |  |  |  |
| CCCc1cc(OC(=O)c2ccccc2F)n(-c2cccc(F)c2)n1 | 235 | inactive | 12 |  |  | Active | inactive | inactive | Active | 3 | 21 | 145 |  |  |
| COc1cc2c(cc1OC)C(C)N(C(=O)NCc1ccccc1)CC2 (stereo not drawn) | 47 | inactive | 3 | inactive | Not Active |  |  |  |  |  |  |  |  |  |
| COc1c2c(cc3c1C(CC(=O)/C=C/c1ccco1)[N+](C)(C)CC3)OCO2 (stereo not drawn) | 80 | inactive | 9 |  |  | inactive |  | inactive | Active | 2.2 | 34 | 22 |  |  |
| CCCCCCCCC(=O)N(Cc1ccco1)C(C)c1nc2ccccc2c(=O)n1-c1cc(C)ccc1C (stereo not drawn) | 39 | inactive | 2 | inactive |  |  |  |  |  |  | 25 | 50 |  |  |
| CCCCc1ccc(C(=O)N(CCC(=O)N2CCC(Cc3ccccc3)CC2)Cc2ccco2)cc1 | 41 | inactive | 5 | inactive |  |  |  |  |  |  | 27 | 60 |  |  |
| O=C(Cc1cccs1)/C(=N/NC(=O)c1cccc(Br)c1)C(F)(F)F | 48 | inactive | 5 | inactive | Not Active |  | inactive |  |  |  |  |  |  |  |
| Oc1ccc2c(c1)CC1NCCc3cc(O)c(O)c-2c31 (stereo not drawn) | 74 | inactive | 15 | inactive | Not Active |  |  |  |  |  |  |  |  |  |
| CCC1CN2CCc3cc(OC)c(OC)cc3C2CC1CC1c2cc(OC)c(OC)cc2CCN1C(=O)c1ccco1 (stereo not drawn) | 42 | inactive | 6 | inactive | Not Active |  |  |  |  |  |  |  |  |  |
| CCCc1cc(OC(=O)C(CC)c2ccccc2)n(-c2cccc(F)c2)n1 (stereo not drawn) | 218 | inactive | 11 | inactive | Not Active | Active |  |  |  |  |  |  |  |  |
| COC(=O)C[C@H](NC(=O)OC(C)(C)C)C(=O)CF |  |  |  |  |  |  |  |  |  |  |  |  | Dose-dependent effect | Dose-dependent effect |
| CCCCCCCCCC(=O)Oc1cc(-c2ccccc2)nn1-c1cccc(C)c1 | 75 | inactive | 10 | inactive |  | inactive |  |  |  |  | 23 | 100 |  |  |
| CC1CN(C(C)c2nc3ccccc3c(=O)n2-c2ccc(F)cc2)CCC1C(=O)C1CC1 (stereo not drawn) | 37 | inactive | 5 | inactive | Not Active |  |  |  |  |  |  |  |  |  |
| CCCCCCN(C(=O)CCCC)C(C)c1nc2ccccc2c(=O)n1-c1ccccc1OC (stereo not drawn) | 26 | inactive | 9 | inactive | Not Active |  |  |  |  |  |  |  |  |  |
| NNc1nnc(-c2ccccc2)c2ccccc12 | 102 | inactive | 5 | inactive |  |  |  |  |  |  | 18 | 8 |  |  |
| COc1ccc(CN(CCC2(c3ccccc3)CCOC(C)(C)C2)C(=O)c2ccco2)cc1OC (stereo not drawn) | 50 | inactive | 5 | inactive | Not Active |  |  |  |  |  |  |  |  |  |
| CC1=NC(Nc2nc(C)c3cc(C)c(C)cc3n2)=NC(C)(C)C1 | 32 | inactive | 7 | inactive | Not Active |  |  |  |  |  |  |  |  |  |
| CC1(C)C(C=C(Cl)Cl)C1C(=O)C1=C(O)CCCC1=O (stereo not drawn) | 79 | inactive | 10 | inactive | Not Active |  |  |  |  |  |  |  |  |  |
| CC(=O)N(C1=C(N(C)C)C(=O)c2ccccc2C1=O)c1ccc(Br)cc1 | 29 | inactive | 5 | inactive | Not Active |  |  |  |  |  |  |  |  |  |
| CC(C)CC(NC(=O)OCc1ccccc1)C(=O)Oc1ccc2c(=O)c(-c3ccc([N+](=O)[O-])cc3)coc2c1 (stereo not drawn) | 38 | inactive | 8 | inactive | Not Active |  |  |  |  |  |  |  |  |  |
| O=c1[nH]c2c(c(=O)[nH]1)C(c1cccc([N+](=O)[O-])c1)C=C(c1ccccc1)O2 (stereo not drawn) | 110 | inactive | 3 | inactive | Not Active |  |  |  |  |  |  |  |  |  |
| CCCN1C(=O)C(=O)c2cc(C)ccc21 | 98 | inactive | 5 | inactive | Not Active |  |  |  |  |  |  |  |  |  |
